From PubChem BioAssay (NCI)
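Method: 48-hour compound exposure of cells in 96-well plates, five concentrations, linear interpolation of endpoints. GI50 = concentration required for 50% inhibition of growth. TGI: concentration producing complete growth inhibition.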

Tests used:
Assay in all cases: NCI anticancer screen, dose series, 48 h
SNB-75 CNS = test system: SNB-75 CNS
TK-10 renal = test system: TK-10 renal
MDA-MB-231 breast = test system: MDA-MB-231 breast
LOX IMVI melanoma = test system: LOX IMVI melanoma
SK-MEL-5 melanoma = test system: SK-MEL-5 melanoma
BT-549 breast = test system: BT-549 breast
NCI/ADR-RES ovarian = test system: NCI/ADR-RES ovarian
OVCAR-8 ovarian = test system: OVCAR-8 ovarian
CAKI-1 renal = test system: CAKI-1 renal
MDA-MB-435 = test system: MDA-MB-435
HCT-15 colon = test system: HCT-15 colon
IGROV1 ovarian = test system: IGROV1 ovarian
COLO 205 colon = test system: COLO 205 colon
MALME-3M melanoma = test system: MALME-3M melanoma
ACHN renal = test system: ACHN renal
MCF7 breast = test system: MCF7 breast
SW-620 colon = test system: SW-620 colon
OVCAR-4 ovarian = test system: OVCAR-4 ovarian
SK-MEL-2 melanoma = test system: SK-MEL-2 melanoma
RXF 393 renal = test system: RXF 393 renal
T-47D breast = test system: T-47D breast
OVCAR-3 ovarian = test system: OVCAR-3 ovarian
RPMI-8226 leukemia = test system: RPMI-8226 leukemia
UACC-257 melanoma = test system: UACC-257 melanoma
NCI-H23 lung = test system: NCI-H23 lung
OVCAR-5 ovarian = test system: OVCAR-5 ovarian
HOP-62 NSCLC = test system: HOP-62 NSCLC
NCI-H522 lung = test system: NCI-H522 lung
EKVX NSCLC = test system: EKVX NSCLC
NCI-H460 lung = test system: NCI-H460 lung
SF-295 CNS = test system: SF-295 CNS
MOLT-4 leukemia = test system: MOLT-4 leukemia
HOP-92 NSCLC = test system: HOP-92 NSCLC
UO-31 renal = test system: UO-31 renal
SN12C renal = test system: SN12C renal
HCT-116 colon = test system: HCT-116 colon
KM12 colon = test system: KM12 colon
HCC-2998 colon = test system: HCC-2998 colon
M14 melanoma = test system: M14 melanoma
CCRF-CEM leukemia = test system: CCRF-CEM leukemia
NCI-H226 lung = test system: NCI-H226 lung
786-0 renal = test system: 786-0 renal
A498 renal = test system: A498 renal
SF-268 CNS = test system: SF-268 CNS
SNB-19 CNS = test system: SNB-19 CNS
SK-MEL-28 melanoma = test system: SK-MEL-28 melanoma
HS 578T breast = test system: HS 578T breast
PC-3 prostate = test system: PC-3 prostate
A549 NSCLC = test system: A549 NSCLC

## CCCCCCCCCC[C@@H](O)[C@H]1CC[C@@H]([C@H]2CC[C@H]([C@H](O)CCCCCCCCCC[C@@H]3CC(CC(C)=O)C(=O)O3)O2)O1 (some centres not stated)
SNB-75 CNS
  GI50: 72 µM
TK-10 renal
  GI50: 26.9 µM
  TGI: > 100 µM
MDA-MB-231 breast
  GI50: 22.8 µM
  TGI: > 100 µM
LOX IMVI melanoma
  GI50: 0.152 µM
  TGI: 27.3 µM
SK-MEL-5 melanoma
  TGI: 16.2 µM
BT-549 breast
  GI50: 23.7 µM
NCI/ADR-RES ovarian
  GI50: 11.9 µM
OVCAR-8 ovarian
  GI50: 22.7 µM
  TGI: > 100 µM
CAKI-1 renal
  TGI: > 100 µM
MDA-MB-435
  TGI: > 100 µM
HCT-15 colon
  GI50: 20.9 µM
  TGI: > 100 µM
IGROV1 ovarian
  TGI: > 100 µM
COLO 205 colon
  GI50: 15.6 µM
  TGI: 32.2 µM
MALME-3M melanoma
  TGI: 37.5 µM
ACHN renal
  GI50: 14.6 µM
MCF7 breast
  GI50: 19.8 µM
  TGI: > 100 µM
SW-620 colon
  GI50: 37.2 µM
  TGI: > 100 µM
OVCAR-4 ovarian
  TGI: 85.5 µM
SK-MEL-2 melanoma
  GI50: 21.5 µM
  TGI: 59.9 µM
RXF 393 renal
  TGI: 24.8 µM
T-47D breast
  GI50: 2.99 µM
  TGI: 69.4 µM
OVCAR-3 ovarian
  GI50: 18.1 µM
  TGI: 39.4 µM
RPMI-8226 leukemia
  GI50: 5.03 µM
  TGI: 26.2 µM
UACC-257 melanoma
  GI50: 3.23 µM
  TGI: 66.3 µM
NCI-H23 lung
  GI50: 0.754 µM
  TGI: > 100 µM
OVCAR-5 ovarian
  TGI: > 100 µM
HOP-62 NSCLC
  GI50: 19.1 µM
  TGI: 72.2 µM
NCI-H522 lung
  TGI: 37.1 µM
EKVX NSCLC
  GI50: 19.2 µM
  TGI: > 100 µM
NCI-H460 lung
  GI50: 0.0647 µM
  TGI: > 100 µM
SF-295 CNS
  GI50: 0.483 µM
  TGI: > 100 µM
MOLT-4 leukemia
  GI50: 6.72 µM
  TGI: 40.6 µM
HOP-92 NSCLC
  TGI: 63.4 µM
UO-31 renal
  GI50: 15.2 µM
  TGI: 34.6 µM
SN12C renal
  GI50: 26.7 µM
HCT-116 colon
  GI50: 0.218 µM
  TGI: > 100 µM
KM12 colon
  GI50: 24.2 µM
  TGI: > 100 µM
HCC-2998 colon
  TGI: 62.5 µM
M14 melanoma
  GI50: 20 µM
  TGI: 50.4 µM
CCRF-CEM leukemia
  TGI: > 100 µM
NCI-H226 lung
  GI50: 19.6 µM
786-0 renal
  TGI: > 100 µM
A498 renal
  TGI: 97 µM
SF-268 CNS
  GI50: 27.4 µM
  TGI: > 100 µM
SNB-19 CNS
  GI50: 18.3 µM
  TGI: > 100 µM
SK-MEL-28 melanoma
  GI50: 29 µM
  TGI: > 100 µM
HS 578T breast
  TGI: 3.78 µM
PC-3 prostate
  GI50: 25.4 µM
  TGI: 99.4 µM
A549 NSCLC
  GI50: 14.3 µM
  TGI: > 100 µM
